Measurements reported in patent EP0782987A1, “INDOLE DERIVATIVES” (KYOWA HAKKO KOGYO CO., LTD., priority 1995, dated 1997).

Experiments:
[1] = test system: calvaria (PTH enhanced bone); assay: Inhibitory effect on bone absorption (calcium liberation from PTH enhanced cultured calvaria); type: cell-based, newborn dd mouse; settings: mouse calvaria culture, PTH 1 x 10^-8M, 96 hours, calcium in the culture; test compound 3 x 10^-6M, 1 x 10^-5M, 3 x 10^-5M
Method: Test Example 1: Inhibitory effect on bone absorption
The calvaria was excised from a newborn dd mouse (5 to 6 days old) under sterile conditions. The calvaria was washed with a modified Dulbecco phosphate buffer physiological saline solution containing neither calcium nor magnesium (a product of Gibco Oriental), and divided into two parts along the center suture. A half of the calvaria was cultivated in a modified Dulbecco Eagle medium (1.5 ml) (a product of Gibco Oriental) containing 2.5% fetal calf serum and 15% equine serum which had been inactivated by heating at 56°C for 20 minutes. The test compound was dissolved in dimethyl sulfoxide and 10 µl of the resulting solution was added to the culture medium to give the final concentrations of 3 x 10^-6M, 1 x 10^-5M, and 3 x 10^-5M. PTH (parathyroid hormone) was dissolved in a 0.15 M saline solution (pH 3) and 3 µl of the resulting solution was added to the culture medium to give the final concentration of 1 x 10^-8M. The culturing was carried out under the condition of 95% air and 5% carbon dioxide and at a temperature of 37°C for 96 hours. At 48 hours after the start of the culturing, the culture medium was renewed and the test compound and PTH treated as defined above were added thereto. For examining the effect of the test compound on calcium liberation (bone absorption) from the PTH enhanced bone, a control group, a group using PTH (1 x 10^-8M), and a group using both the test compound (3 x 10^-6M, 1 x 10^-5M, 3 x 10^-5M) and PTH were prepared. The amount of the bone absorption was determined by measuring the amount of calcium accumulated in the culture as collected after 96 hours of culturing. The total calcium concentration in the culture was measured with Calcium C Test Wako. The inhibition rate was calculated using the following equation and the result was shown in terms of 50% inhibitory concentration (IC50). Inhibition of bone absorption from PTH enhanced bone Inhibition rate (%) = [(CP - CD )/(CP - C0 )] x 100 [formula] • C0 : The total calcium concentration in the culture containing neither the test compound nor PTH. • CP : The total calcium concentration in the culture treated with only PTH. • CD : The total calcium concentration in the culture treated with both the test compound and PTH.

ovariectomized rats = assay: Inhibitory effect on the increase of urinary hydroxyproline excretion by ovariectomy; type: in vivo, female SD strain rats; settings: 10 mg/kg orally once a day for two weeks, hydroxyproline/creatinine molar ratio in 24 hour urine
Method: The inhibitory effect of the compounds of the present application on bone resorption was also determined by their inhibitory effect on the excretion of urinary hydroxyproline which is elevated by ovariectomy of the animals tested, according to the report of Kalu et al. [Bone and Mineral., 14, 175 (1991)].
Test Example 2: Inhibitory effect on the increase of urinary hydroxyproline excretion by ovariectomy
12-weeks-old female SD strain rats (Japan Clea Co., Ltd.) were acclimated for 1 week during which they were given tap water and a standard diet (F2; Funabashi Farmas) ad libitum. The experiment was carried out using the rats weighing 270-310 g. After the animals were subjected to sham operation or bilateral ovariectomy, they were allowed free access to water passed through ion exchange resin instead of tap water, and were housed in individual cages. The test compound (10 mg/kg) was suspended in 0.3% Tween, and the obtained suspension was orally administered to the ovariectomized rats once a day for two weeks starting from the day following ovariectomy (0.5 ml/100 g body weight). 0.3% Tween was similarly administered to sham-operated rats and ovariectomized control rats. After the final administration, the rats were placed in individual metabolic cages and fasted during 24 hours, and urine was collected. The volume of the collected urine was measured and the urine was centrifuged at 3,000 rpm for 15 min at 4°C. The concentration of hydroxyproline in the supernatant was measured by the method of Ikeda et al. [Ann. Rep. Tokyo Metr. Res. Lab. P. H., 36, 277-282 (1985)] and the concentration of creatinine in the supernatant was measured with creatinine test WAKO (Wako Pure Chem.) The amount of urinary hydroxyproline excretion was expressed by the molar ratio of the amount of hydroxyproline to the amount of creatinine. The rate of inhibition on increase of the amount of urinary hydroxyproline excretion in ovariectomized rats treated with the test compound compared to that of the control group was calculated using the following equation. […]

SMILES	IC50 [1] [µM]	Inhibition rate of increase of the amount of urinary hydroxyproline excretion (ovariectomized rats) [%]
O=S(=O)(c1c(C(c2ccc(O)cc2)c2ccc(O)cc2)c2ccccc2n1CCN1CCOCC1)N1CCN(c2ccccc2Cl)CC1 [Compound 16, 3-[Bis(4-hydroxyphenyl)methyl]-2-[4-(2-chlorophenyl)piperazinylsulfonyl]-1-(2-morpholinoethyl)indole]		32
CN(C)CCn1c(S(=O)(=O)N2CCCCC2)c(C(c2ccc(O)cc2)c2ccc(O)cc2)c2ccccc21 [Compound 17, 3-[Bis(4-hydroxyphenyl)methyl]-1-(2-dimethylaminoethyl)-2-(piperidinosulfonyl)indole]	13.7	
CN(C)CCn1c(S(=O)(=O)N2CCCCC2)c(C(c2ccccc2)c2ccccc2)c2ccccc21 [Compound 24, 1-(2-Dimethylaminoethyl)-3-(diphenylmethyl)-2-(piperidinosulfonyl)indole]	13.7	100

Continued by falling IC50 [1], values first:

IC50 [1] [µM]	SMILES	Inhibition rate of increase of the amount of urinary hydroxyproline excretion (ovariectomized rats) [%]
14.1	O=S(=O)(c1[nH]c2ccccc2c1C(c1ccc(O)cc1)c1ccc(O)cc1)N1CCN(c2ccccc2Cl)CC1 [Compound 14, 3-[Bis(4-hydroxyphenyl)methyl]-2-[4-(2-chlorophenyl)piperazinylsulfonyl]indole]	
13.3	CCN(CC)S(=O)(=O)c1c(C(c2ccc(O)cc2)c2ccc(O)cc2)c2ccccc2n1CCN(C)C [Compound 18, N,N-Diethyl-3-[bis(4-hydroxyphenyl)methyl]-1-(2-dimethylaminoethyl)indole-2-sulfonamide]	22
